Active and inactive are the calls of the source.

Experiment [1] can be described thus: NIH-3T3 fibroblast cytotoxicity, dose response, cytotoxicity control, cell-based, fluorescence, Alamar Blue, secondary assay (AID 2327).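 Further: NIH-3T3 mouse fibroblasts cultured with fluconazole at 8 µg/mL.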 It counts as functional. On the technique in general: Alamar Blue is a resazurin reagent that responds to reducing activity.
Experiment [2] is described as follows: C. albicans growth with fluconazole, confirmation, fluorescence, retest (AID 2467). Format: functional, cell-based.
The target in experiment [3] is Bcl-2-like protein 1 (Homo sapiens, UniProt Q07817). The experiment in a line: BCL-XL inhibitors, dose response, selectivity assay for MCL1 inhibitor project, biochemical, fluorescence polarization, 1536-well (AID 2218). In general terms: Polarisation of emitted light reports the rotation of a fluorescent probe.
Chain of Bcl-2-like protein 1 (Q07817 whole entry): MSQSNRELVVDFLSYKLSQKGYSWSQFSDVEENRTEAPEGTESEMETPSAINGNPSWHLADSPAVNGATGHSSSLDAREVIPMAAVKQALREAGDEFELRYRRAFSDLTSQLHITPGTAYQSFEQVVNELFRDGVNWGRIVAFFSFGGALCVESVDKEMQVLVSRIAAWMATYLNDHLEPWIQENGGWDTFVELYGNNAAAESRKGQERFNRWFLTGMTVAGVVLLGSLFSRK
The target in experiment [4] is Induced myeloid leukemia cell differentiation protein Mcl-1 (Homo sapiens, UniProt Q07820). The experiment in a line: MCL1-BIM BH3 interaction inhibitors, dose response, biochemical, fluorescence polarization, BIM-BH3 peptide, 1536-well (AID 2217).
Chain of Induced myeloid leukemia cell differentiation protein Mcl-1 (Q07820 whole entry): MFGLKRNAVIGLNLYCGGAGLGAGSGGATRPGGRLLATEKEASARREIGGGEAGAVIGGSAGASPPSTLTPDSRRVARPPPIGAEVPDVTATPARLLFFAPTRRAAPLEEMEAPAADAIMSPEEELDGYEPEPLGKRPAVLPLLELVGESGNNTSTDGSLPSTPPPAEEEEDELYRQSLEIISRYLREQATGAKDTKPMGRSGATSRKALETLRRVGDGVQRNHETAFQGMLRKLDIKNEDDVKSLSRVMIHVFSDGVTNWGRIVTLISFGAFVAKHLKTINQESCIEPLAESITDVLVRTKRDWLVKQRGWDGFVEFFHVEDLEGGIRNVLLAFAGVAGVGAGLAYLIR
The target in experiment [5] is Sphingosine 1-phosphate receptor 2 (Homo sapiens, UniProt O95136). The experiment in a line: Dose Response Cell Based Assay for Agonists of the S1P2 Receptor of Purchased Analogues. [Related pubchem assays: 729, 843, 854, 736 ]. It counts as functional.
Chain of Sphingosine 1-phosphate receptor 2 (O95136 whole entry): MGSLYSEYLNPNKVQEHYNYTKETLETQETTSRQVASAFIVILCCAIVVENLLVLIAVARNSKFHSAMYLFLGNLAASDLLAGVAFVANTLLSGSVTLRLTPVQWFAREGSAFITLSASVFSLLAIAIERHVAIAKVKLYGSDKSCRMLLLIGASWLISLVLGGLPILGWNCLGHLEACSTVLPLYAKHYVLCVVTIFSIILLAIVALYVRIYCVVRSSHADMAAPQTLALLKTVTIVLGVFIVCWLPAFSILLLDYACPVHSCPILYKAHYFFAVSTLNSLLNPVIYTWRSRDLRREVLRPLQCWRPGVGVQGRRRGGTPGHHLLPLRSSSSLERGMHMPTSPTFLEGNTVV
Experiment [6] concerns the target Ion channel NompC (Danio rerio, UniProt Q7T1G6). The experiment in a line: Fluorescence counterscreen assay for TRPML3 agonists: dose response cell-based high-throughput screening assay to identify agonists of the transient receptor potential channel N1 (TRPN1). [Related pubchem assays: 1526, 1424, 1448 ]. It counts as functional. In general terms: A counterscreen serves to expose hits that act by an unwanted route or on another target.

Experiment [7] addresses Mucolipin-3 (Homo sapiens, UniProt Q8TDD5). The experiment in a line: Dose response cell-based high-throughput screening assay for agonists of the transient receptor potential channel ML3 (TRPML3). [Related pubchem assays: 1526, 1424, 1448 ]. Format: functional.
Experiment [8] concerns the target T1, E3 ubiquitin-protein ligase XIAP (Homo sapiens, UniProt P98170). The experiment in a line: XIAP antagonists, biochemical, IAP family, fluorescence polarization (AID 1018). It counts as functional.
For experiment [9], the target named is T1, E3 ubiquitin-protein ligase XIAP. The experiment in a line: Counter Screen using XIAP-Bir3 for Chemical Antagonists of Bir1/2 domains of IAP-family anti-apoptotic proteins. [Related pubchem assays (depositor defined):AID1018, AID1449, AID1514, AID1638, AID1749, AID1750, AID488957, AID488963].
Experiment [10] addresses Epstein-Barr nuclear antigen 1 (Epstein-Barr virus (strain B95-8) (HHV-4) (Human herpesvirus 4), UniProt P03211). The experiment in a line: EBNA-1 inhibitors, dose response, biochemical, fluorescence polarization, 1536-well (AID 2381).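 Further: fluorescence polarization of a Cy5 DNA probe bound by EBNA-1 protein.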 Also on record: species or system human gammaherpesvirus 4.
Experiment [11] addresses Lytic switch protein BZLF1 (Epstein-Barr virus (strain B95-8) (HHV-4) (Human herpesvirus 4), UniProt P03206). The experiment in a line: EBV ZTA inhibitors, dose response, counter-screen for EBNA-1 inhibitor project, biochemical, fluorescence polarization, Epstein-Barr virus, 1536-well (AID 2377).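 Further: fluorescence polarization of Cy5-labelled ZRE DNA probe bound by purified Zta.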 Details: species or system human gammaherpesvirus 4.

T1 sequence (P98170 whole entry): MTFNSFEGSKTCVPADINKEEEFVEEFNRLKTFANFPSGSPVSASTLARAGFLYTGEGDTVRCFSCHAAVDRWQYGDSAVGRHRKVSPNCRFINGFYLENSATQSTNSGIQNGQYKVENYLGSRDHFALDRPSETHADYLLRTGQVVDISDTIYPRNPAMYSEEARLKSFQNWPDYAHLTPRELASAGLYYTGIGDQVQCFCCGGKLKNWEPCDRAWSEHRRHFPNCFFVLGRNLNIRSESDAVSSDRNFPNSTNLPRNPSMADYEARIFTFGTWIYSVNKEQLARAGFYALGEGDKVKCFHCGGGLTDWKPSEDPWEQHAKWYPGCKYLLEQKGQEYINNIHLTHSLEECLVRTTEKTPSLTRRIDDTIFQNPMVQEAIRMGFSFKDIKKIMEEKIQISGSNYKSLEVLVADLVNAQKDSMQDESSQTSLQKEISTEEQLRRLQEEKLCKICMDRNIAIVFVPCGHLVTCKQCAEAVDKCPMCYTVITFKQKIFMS
Chain of Epstein-Barr nuclear antigen 1 (P03211 whole entry): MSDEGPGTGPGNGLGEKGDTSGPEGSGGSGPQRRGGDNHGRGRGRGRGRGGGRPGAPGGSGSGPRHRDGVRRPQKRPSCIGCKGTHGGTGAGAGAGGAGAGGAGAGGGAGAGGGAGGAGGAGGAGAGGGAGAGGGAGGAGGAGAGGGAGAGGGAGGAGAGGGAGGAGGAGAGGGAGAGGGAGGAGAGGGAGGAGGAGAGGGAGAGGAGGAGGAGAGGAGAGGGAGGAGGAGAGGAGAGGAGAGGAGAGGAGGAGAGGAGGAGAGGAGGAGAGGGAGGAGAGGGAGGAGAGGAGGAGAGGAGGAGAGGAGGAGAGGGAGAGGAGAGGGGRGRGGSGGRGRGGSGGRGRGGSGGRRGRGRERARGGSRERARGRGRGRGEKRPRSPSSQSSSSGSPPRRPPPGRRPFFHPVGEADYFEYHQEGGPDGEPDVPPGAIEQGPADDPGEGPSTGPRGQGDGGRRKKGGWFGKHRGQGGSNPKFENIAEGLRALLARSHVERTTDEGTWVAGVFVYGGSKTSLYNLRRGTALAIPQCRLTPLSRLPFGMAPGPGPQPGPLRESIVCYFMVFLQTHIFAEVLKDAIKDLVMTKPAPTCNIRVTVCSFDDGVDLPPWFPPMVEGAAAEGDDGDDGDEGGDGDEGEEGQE
Chain of Lytic switch protein BZLF1 (P03206 whole entry): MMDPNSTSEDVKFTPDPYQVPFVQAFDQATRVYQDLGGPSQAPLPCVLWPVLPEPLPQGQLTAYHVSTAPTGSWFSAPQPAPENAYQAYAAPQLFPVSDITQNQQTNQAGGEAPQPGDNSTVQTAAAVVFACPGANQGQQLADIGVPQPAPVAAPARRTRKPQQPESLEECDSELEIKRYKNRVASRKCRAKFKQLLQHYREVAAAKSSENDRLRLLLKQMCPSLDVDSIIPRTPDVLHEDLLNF
Chain of Ion channel NompC (Q7T1G6 whole entry): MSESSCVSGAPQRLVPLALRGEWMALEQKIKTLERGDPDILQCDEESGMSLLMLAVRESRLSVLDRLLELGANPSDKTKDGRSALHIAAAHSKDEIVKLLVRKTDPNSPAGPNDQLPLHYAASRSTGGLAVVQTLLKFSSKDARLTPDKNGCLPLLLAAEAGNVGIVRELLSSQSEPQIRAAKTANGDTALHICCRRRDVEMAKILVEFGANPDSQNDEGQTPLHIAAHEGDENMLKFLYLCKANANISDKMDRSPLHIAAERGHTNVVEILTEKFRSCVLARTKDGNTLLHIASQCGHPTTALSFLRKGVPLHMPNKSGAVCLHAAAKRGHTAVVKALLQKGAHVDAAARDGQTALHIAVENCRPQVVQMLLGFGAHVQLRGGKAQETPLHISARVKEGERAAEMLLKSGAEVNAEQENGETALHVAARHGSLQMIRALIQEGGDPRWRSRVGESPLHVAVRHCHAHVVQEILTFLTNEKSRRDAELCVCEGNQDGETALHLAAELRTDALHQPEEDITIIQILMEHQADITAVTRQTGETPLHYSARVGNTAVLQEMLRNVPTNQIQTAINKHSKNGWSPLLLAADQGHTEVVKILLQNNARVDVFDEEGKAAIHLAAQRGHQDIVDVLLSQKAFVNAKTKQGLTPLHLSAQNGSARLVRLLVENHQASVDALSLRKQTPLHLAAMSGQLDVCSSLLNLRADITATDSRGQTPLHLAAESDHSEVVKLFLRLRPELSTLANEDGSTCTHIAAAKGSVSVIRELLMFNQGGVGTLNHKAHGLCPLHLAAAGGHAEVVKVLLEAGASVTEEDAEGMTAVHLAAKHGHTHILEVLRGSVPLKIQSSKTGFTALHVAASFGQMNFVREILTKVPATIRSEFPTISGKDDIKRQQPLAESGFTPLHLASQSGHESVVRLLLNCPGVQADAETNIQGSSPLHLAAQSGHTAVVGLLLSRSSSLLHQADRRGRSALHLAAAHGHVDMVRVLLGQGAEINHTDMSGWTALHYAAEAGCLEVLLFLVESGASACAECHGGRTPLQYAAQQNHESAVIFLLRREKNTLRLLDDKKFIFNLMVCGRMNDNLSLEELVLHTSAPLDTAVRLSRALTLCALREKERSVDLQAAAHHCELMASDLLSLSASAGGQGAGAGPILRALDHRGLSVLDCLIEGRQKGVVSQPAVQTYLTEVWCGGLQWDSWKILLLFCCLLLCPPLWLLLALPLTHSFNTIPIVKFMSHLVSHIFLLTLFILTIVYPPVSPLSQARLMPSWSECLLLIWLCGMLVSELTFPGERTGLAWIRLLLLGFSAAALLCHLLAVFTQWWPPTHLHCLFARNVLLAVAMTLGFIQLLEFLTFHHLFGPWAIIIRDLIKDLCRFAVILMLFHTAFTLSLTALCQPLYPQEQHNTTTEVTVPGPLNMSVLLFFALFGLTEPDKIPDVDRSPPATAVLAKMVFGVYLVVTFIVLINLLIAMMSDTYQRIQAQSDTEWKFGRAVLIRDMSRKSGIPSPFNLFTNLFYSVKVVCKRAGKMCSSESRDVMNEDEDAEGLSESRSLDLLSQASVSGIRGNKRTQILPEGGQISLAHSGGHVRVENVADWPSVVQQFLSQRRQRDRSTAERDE
Chain of Mucolipin-3 (Q8TDD5 whole entry): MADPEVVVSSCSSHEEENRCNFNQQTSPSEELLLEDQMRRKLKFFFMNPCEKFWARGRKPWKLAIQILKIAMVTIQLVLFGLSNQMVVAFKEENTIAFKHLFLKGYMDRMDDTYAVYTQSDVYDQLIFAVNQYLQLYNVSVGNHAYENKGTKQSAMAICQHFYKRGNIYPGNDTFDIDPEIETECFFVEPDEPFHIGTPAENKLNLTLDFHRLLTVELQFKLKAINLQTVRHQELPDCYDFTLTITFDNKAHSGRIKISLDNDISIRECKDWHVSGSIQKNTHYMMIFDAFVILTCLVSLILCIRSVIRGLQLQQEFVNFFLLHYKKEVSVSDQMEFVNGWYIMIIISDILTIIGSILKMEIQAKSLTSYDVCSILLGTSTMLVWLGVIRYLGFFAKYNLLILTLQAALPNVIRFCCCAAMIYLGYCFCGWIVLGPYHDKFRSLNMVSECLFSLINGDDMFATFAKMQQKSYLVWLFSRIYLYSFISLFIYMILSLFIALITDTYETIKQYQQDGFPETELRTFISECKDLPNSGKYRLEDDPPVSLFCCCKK

As to `C=CCc1cccc(/C=N/NC(=O)CNc2cccc3ccccc23)c1O`, the EC50 – broadly, the midpoint of the concentration-response curve – in experiment [1] was > 150 µM (inactive); in [2], 3.28 µM (active). Moreover, the IC50 in [3] and in [4] was > 109 µM (not active) in each case.
`COc1ccc(C(N)=O)c(OCC(=O)c2cc(C)n(Cc3ccccc3)c2C)c1`: in experiment [5], the EC50 is recorded as > 30 µM (not active).
On to `CN(C1CCCCC1)S(=O)(=O)c1cccc(C(=O)OCC(=O)NC2CCCc3ccccc32)c1` (stereo unspecified), for which the EC50 was > 29.9 µM (not active) in experiment [6] and 2.86 µM (active) in experiment [7].
Regarding `COc1ccc(C(=O)C2=C(O)C(=O)N(CC3CCCO3)C2c2cccc(OC)c2)cc1` (stereo unspecified), the IC50 (commonly the midpoint of a concentration-inhibition curve) is > 100 µM (not active) in experiment [8] and > 100 µM (inactive) in experiment [9].
With `COc1ccc(CN=C(S)N2CCN(S(=O)(=O)c3cccc(F)c3)CC2)cc1`, the IC50 in experiment [10] is 5.94 µM (active); in experiment [11], > 111 µM (not active).

The values are drawn from ChEMBL document CHEMBL1201862, “PubChem BioAssay data set” (2004).
